Assay results: ChEMBL document CHEMBL1201862, “PubChem BioAssay data set” (2004)
“And” between values parts separate entries of the source, which are not always exact repeats. Equal values may be shown once.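 The compound was tested at five concentrations on cells cultured in 96-well plates, with a 48-hour exposure period. The concentration for 50% growth inhibition is given as GI50.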 The source made the active and inactive calls. Cut-off read from the data, not from the text of the source: active = GI50 up to about 1.1 µM and inactive = higher.

Legend:
Assay in all cases: inhibition of tumour cell growth, NCI panel, 48 h
[1] = tested on: CAKI-1
[2] = tested on: CCRF-CEM
[3] = tested on: COLO 205
[4] = tested on: HCT-15
[5] = tested on: HL-60
[6] = tested on: HOP-92
[7] = tested on: LOX IMVI
[8] = tested on: M14
[9] = tested on: SF-295
[10] = tested on: SK-MEL-28
[11] = tested on: SK-MEL-5
[12] = tested on: SK-OV-3
[13] = tested on: SNB-19
[14] = tested on: SNB-75
[15] = tested on: U-251
[16] = tested on: UACC-257
[17] = tested on: UACC-62
[18] = tested on: UO-31
[19] = tested on: RPMI-8226
[20] = tested on: NCI-H226

Row | Compound | GI50 [1] | GI50 [2] | GI50 [3] | GI50 [4] [µM] | GI50 [5] | GI50 [6] | GI50 [7] | GI50 [8] | GI50 [9] | GI50 [10] | GI50 [11] | GI50 [12] | GI50 [13] | GI50 [14] | GI50 [15] | GI50 [16] | GI50 [17] | GI50 [18] | GI50 [19] | GI50 [20]
1 | CCOC(=O)NC(=O)c1cn(CCN2CCN(C(=O)CCCCCCCCCCNc3ncnc4c3ncn4C3OC(CO)C(O)C3O)CC2)c(=O)[nH]c1=O (stereo not given) | > 100 µM (inactive) | > 100 µM (inactive) | > 100 µM (inactive) | > 100 | > 100 µM (inactive) | 70.3 µM (inactive) | > 100 µM (inactive) | > 100 µM (inactive) | > 100 µM (inactive) | > 100 µM (inactive) | > 100 µM (inactive) | > 100 µM (inactive) | > 100 µM (inactive) | > 100 µM (inactive) | > 100 µM (inactive) | > 100 µM (inactive) | > 100 µM (inactive) | > 100 µM (inactive) |  | 
2 | CC(=O)O[C@H]1C(=O)[C@@]2(C)[C@H]([C@H](OC(=O)c3ccccc3)[C@]3(O)C[C@H](OC(=O)[C@H](O)[C@@H](NC(=O)c4ccccc4)c4ccc5ccccc5c4)C(C)=C1C3(C)C)[C@]1(OC(C)=O)CO[C@@H]1C[C@@H]2O | 1.59 µM (inactive) | 0.0287 µM (active) | 0.0787 µM (active) | 1.54 | 0.0107 µM (active) | 2.25 µM (inactive) | 0.0887 µM (active) | 0.0466 µM (active) | 0.304 µM (active) | 0.132 µM (active) | 0.0685 µM (active) | 0.0248 µM (active) | 0.279 µM (active) | 0.0594 µM (active) | 0.0692 µM (active) | 0.0826 µM (active) | 0.0463 µM (active) | 2.39 µM (inactive) | 0.0229 µM (active) | 
3 | CC1=NN(C(=O)c2ccc(Cl)cc2)C(=O)/C1=C/c1ccc(Cl)cc1 | > 100 µM (inactive) | > 100 µM (inactive) | > 100 µM (inactive) |  | > 100 µM (inactive) | > 100 µM (inactive) | > 100 µM (inactive) | > 100 µM (inactive) | > 100 µM (inactive) | > 100 µM (inactive) | > 100 µM (inactive) | > 100 µM (inactive) | > 100 µM (inactive) |  | > 100 µM (inactive) | > 100 µM (inactive) | > 100 µM (inactive) | > 100 µM (inactive) | > 100 µM (inactive) | 
4 | COc1cc2oc3c(c(=O)c2c(O)c1/C=C/C(C)C)CCC(C)(C)Oc1cc(O)ccc1-3 | 16.5 µM (inactive) | 17.3 µM (inactive) | 16.4 µM (inactive) | 10.2 | 13.1 µM (inactive) | 17.6 µM (inactive) | 9.14 µM (inactive) | 10.8 µM (inactive) | 13.3 µM (inactive) | 14.8 µM (inactive) | 18.7 µM (inactive) | 16.7 µM (inactive) | 16.1 µM (inactive) | 16 µM (inactive) | 20.5 µM (inactive) | 14.3 µM (inactive) | 15.6 µM (inactive) | 13.1 µM (inactive) | 20 µM (inactive) | 
5 | c1ccc([C@@H]2N[C@@]3(CO[Si](c4ccccc4)(c4ccccc4)c4ccccc4)CC[C@H]4CN[C@@H]2[C@H]43)cc1 | 12.4 µM (inactive) | 16 µM (inactive) | 1.68 µM (inactive) | 3.17 | 4.36 µM (inactive) | 4.61 µM (inactive) | 10.4 µM (inactive) | 5.65 µM (inactive) | 12.4 µM (inactive) | 14.9 µM (inactive) | 6.47 µM (inactive) | 16.2 µM (inactive) | 17.2 µM (inactive) |  | 16.9 µM (inactive) | 14.3 µM (inactive) | 14.3 µM (inactive) | 10.8 µM (inactive) | 2.76 µM (inactive) | 12.4 µM (inactive)
6 | O=C1Nc2ccccc2/C1=C\c1c(-c2ccccc2)nc2n1CCS2 | 21.3 µM (inactive) | 24.7 µM (inactive) | 29 µM (inactive) | 18.6 | 18.2 µM (inactive) | 39.3 µM (inactive) | 18.3 µM (inactive) | 30.3 µM (inactive) | 17.3 µM (inactive) | 31.2 µM (inactive) | 16.5 µM (inactive) | 21.4 µM (inactive) | 28.5 µM (inactive) | 12.1 µM (inactive) | 20.5 µM (inactive) | 19.5 µM (inactive) | 13 µM (inactive) | 5.68 µM (inactive) | 22.6 µM (inactive) | 
7 | Cn1c2c(c3ccccc31)CCN(CCCN1CCN(c3cccc(Cl)c3)CC1)C2=O | 20.8 µM (inactive) | 31.5 µM (inactive) | 15.1 µM (inactive) | 25.1 | 6.85 µM (inactive) | 3.91 µM (inactive) | 20.2 µM (inactive) | 17.1 µM (inactive) |  | 17.4 µM (inactive) | 15.1 µM (inactive) | 38.5 µM (inactive) | 27.4 µM (inactive) |  | 3.27 µM (inactive) |  | 17.4 µM (inactive) | 11 µM (inactive) | 12.2 µM (inactive) | 
8 | CCCCc1nc(C)oc1C(C)C | > 100 µM (inactive) | > 100 µM (inactive) | > 100 µM (inactive) | > 100 | > 100 µM (inactive) | > 100 µM (inactive) | > 100 µM (inactive) | > 100 µM (inactive) | > 100 µM (inactive) | > 100 µM (inactive) | > 100 µM (inactive) | > 100 µM (inactive) |  | > 100 µM (inactive) | > 100 µM (inactive) | > 100 µM (inactive) | > 100 µM (inactive) | > 100 µM (inactive) |  | 40.7 µM (inactive)
9 | COc1ccc(C2=NN(C(=O)c3ccc(Cl)cc3)C(O)(c3cc(F)c(Cl)cc3Cl)C2)cc1OC (stereo not given) | 18.6 µM (inactive) | 1.99 µM (inactive) |  | 8.28 | 0.495 µM (active) | 13.2 µM (inactive) | 37.9 µM (inactive) | 12.5 µM (inactive) | 26 µM (inactive) | > 100 µM (inactive) | 33.1 µM (inactive) | > 100 µM (inactive) |  |  | 19.2 µM (inactive) | 31.3 µM (inactive) |  | 3.08 µM (inactive) | 6.03 µM (inactive) | > 100 µM (inactive)
10 | O=C1C=CC(=NNc2ccccc2)C=CC1=O | 13.9 µM (inactive) |  | 13.5 µM (inactive) | 5.83 | 14 µM (inactive) | 17.5 µM (inactive) | 5.09 µM (inactive) | 12.9 µM (inactive) | 6.85 µM (inactive) | 14.4 µM (inactive) | 11.5 µM (inactive) | 26 µM (inactive) | 18.9 µM (inactive) | 16.3 µM (inactive) | 7.71 µM (inactive) | 18.8 µM (inactive) | 12.8 µM (inactive) | 17.8 µM (inactive) |  | 11.7 µM (inactive)
11 | C=CC1(CC/C(=C\[N+](=O)[O-])c2ccc(OC)c(OC)c2)OCC(C)(C)CO1 | 23.2 µM (inactive) | 7.57 µM (inactive) | 18 µM (inactive) | 12.7 | 5.27 µM (inactive) | 18.2 µM (inactive) | 12.8 µM (inactive) | 17.8 µM (inactive) | 18.7 µM (inactive) | 19.8 µM (inactive) | 13.1 µM (inactive) | 22.4 µM (inactive) | 16.9 µM (inactive) |  | 23.1 µM (inactive) | 10.2 µM (inactive) | 13.2 µM (inactive) | 15.1 µM (inactive) |  | 16.4 µM (inactive)
12 | O=C(CCc1n[nH]c(=S)o1)Nc1ccccc1C(F)(F)F | > 100 µM (inactive) | > 100 µM (inactive) | 57.4 µM (inactive) | 20.2 | > 100 µM (inactive) | > 100 µM (inactive) |  | > 100 µM (inactive) | > 100 µM (inactive) | > 100 µM (inactive) | > 100 µM (inactive) | > 100 µM (inactive) | > 100 µM (inactive) | > 100 µM (inactive) | > 100 µM (inactive) | > 100 µM (inactive) | > 100 µM (inactive) | > 100 µM (inactive) | 25.9 µM (inactive) | > 100 µM (inactive)
13 | O=[N+]([O-])c1ccccc1CSc1nc(O)c2nc[nH]c2n1 | 90.4 µM (inactive) |  | > 100 µM (inactive) | > 100 | 78.2 µM (inactive) | > 100 µM (inactive) | > 100 µM (inactive) | 61.9 µM (inactive) | > 100 µM (inactive) and 99.8 µM (inactive) | > 100 µM (inactive) | > 100 µM (inactive) | 63.8 µM (inactive) | 59.8 µM (inactive) |  | > 100 µM (inactive) and 96.4 µM (inactive) | 81.3 µM (inactive) | > 100 µM (inactive) and 88.1 µM (inactive) |  | > 100 µM (inactive) and 89.3 µM (inactive) | 
14 | COC(=O)[C@]12CC[C@H]3CN(C(=O)OCc4ccccc4)[C@H]([C@H]31)[C@H](c1ccco1)N2S(=O)(=O)c1ccc(C)cc1 | 28.8 µM (inactive) | 11.4 µM (inactive) | 19.8 µM (inactive) | 15.4 | 16.3 µM (inactive) | 12.8 µM (inactive) | 16.3 µM (inactive) | 17.5 µM (inactive) | 25.9 µM (inactive) | 39.2 µM (inactive) | 16.5 µM (inactive) | 52.1 µM (inactive) | 34 µM (inactive) |  | 27.9 µM (inactive) | 20.3 µM (inactive) | 15 µM (inactive) | 20.9 µM (inactive) | 11.6 µM (inactive) | 27.5 µM (inactive)
15 | Cc1cn(Cc2cccc(C3=NCCCN3)c2)c(=O)n(Cc2cccc(C3=NCCCN3)c2)c1=O | > 100 µM (inactive) | > 100 µM (inactive) | > 100 µM (inactive) | > 100 | > 100 µM (inactive) | > 100 µM (inactive) | > 100 µM (inactive) | > 100 µM (inactive) | > 100 µM (inactive) | > 100 µM (inactive) | > 100 µM (inactive) | > 100 µM (inactive) | > 100 µM (inactive) | 83.6 µM (inactive) | > 100 µM (inactive) | > 100 µM (inactive) | > 100 µM (inactive) | > 100 µM (inactive) | > 100 µM (inactive) | 
